Data on 3 compounds can be found in patent US8076311B2, “Compositions and methods for modulating the immune system” (priority 2006, dated 2011).

Read-outs that look alike come from different tables or passages of the source.

The subject of one series is immune comprised patient. In words: Patient case study: clinical status. In kind it is in vivo, human. The procedure:
The patient was treated with a Formula 2 compound and blood cell parameters were monitored. The sample size for this experiment was 1, consisting of subject 1. Subject 1 is an immune comprised patient with multiple recurrent infectious bouts requiring hospitalization while in a nearly moribund condition began treatment with the experimental drug Isopentyl adenosine (IPA). The subject had been hospitalized with avert life-threatening infections. The subject's total white blood cell counts were in the range of 2200-4900 for the three month period preceding hospitalization. […] The patient was hospitalized from depression, exhaustion, bronchial infection, severe diarrhea, severe weight loss and complete loss of appetite and spiked fever. The patient's weight was 98 pounds.

For series [1], the system named is T lymphocyte. In words: Patient case study: T lymphocyte competence (proliferation in response to PHA). The series is classed as in vivo, human. The procedure: (§1) The patient was treated with a Formula 2 compound and blood cell parameters were monitored. The sample size for this experiment was 1, consisting of subject 1. Subject 1 is an immune comprised patient with multiple recurrent infectious bouts requiring hospitalization while in a nearly moribund condition began treatment with the experimental drug Isopentyl adenosine (IPA).
(§2) The subject initially received IPA (see FIGS. 1 and 2). T and B lymphocyte competence as measured by the ability of these cells to proliferate in response to specific stimulating mitogens (PHA for T cells and PWM for B cells) which was monitored on a weekly basis until death. As shown in FIGS. 1 and 2 respectively the subject's T and B lymphocyte competence on was well below normal.

The next series deals with B lymphocyte. Put plainly: Patient case study: B lymphocyte competence (proliferation in response to PWM). The series is classed as in vivo, human. The procedure:
as §1, §2

Series [2] deals with T lymphocyte. The following applies: patients receiving immune stimulating agents; cited from earlier work.
In the next series the test system is bone marrow cells. As to conditions: after the 15th day of post-irradiation. The procedure: (§3) Thirty six animals were divided into four groups of nine animals each. […] Group 4 was treated as normal animals without any treatment. On days 5, 10 and 15 after irradiation (750) rads three animals from each group was sacrificed. Blood was collected to heparinized tubes, and plasma was removed and following parameters were assayed in the blood. Activity of the enzyme SOD was measured by NBT reduction method of McCord and Fridovich. CAT activity was estimated by the method of Aebi by measuring the rate of decomposition of hydrogen peroxide at 240 nm. Level of GSH was assayed by the method of Moron et al based on the reaction with DTBN. Assay of GPX followed the method of Hafeman based on the degradation of H2O2 in the presence of GSH. The method of Habig was followed to assay the activity of GST based on the rate of increase in the conjugate formation between GSH and CDNB.
The femurs of three above animals were dissected out and bone marrow cells were flushed into phosphate buffered saline (pH 7.4) containing 2% foetal calf serum. The cells were washed and bone marrow viability was determined by the method of Sredni. The results were expressed as number of live bone marrow cells ×10(6)/femur.

The subject of a further series is lipid peroxidation. The following applies: group III; day 15; liver; p<−0.001. The procedure: The liver of the sacrificed animals were excised quickly washed in ice-cold saline and kept at −70° C. till the day of analysis. On the day of analysis 25% homogenate was pre-pared in tris-HCl buffer (0.1 M, pH 7.4). The homogenate was centrifuged at 12000 rpm for 30 minutes and supernatant was used to determine the tissue lipid peroxide levels (LPO) using the TBA method of Okhawa et al.

The next series relates to irradiated animals. In words: Effect of oltipraz on haematological parameters and body weight of irradiated animals. The following applies: for Body weight on day 6: 750 rads, p>0.05.
A further series concerns GSH. The following applies: oltipraz continuously administered group; 15th day; p<0.001. The procedure: as §3
Another series deals with GPX. The following applies: group III; 15th day after irradiation; p<−0.001. The procedure:
as §3

Another series concerns GST. The following applies: group III; 15th day; p<−0.01. The procedure: as §3
In another series the test system is CAT. The following applies: continuous administration; maximum on tenth day after irradiation. The procedure: as §3
In the next series the test system is SOD. As to conditions: continuous administration; maximum value on the 15th day after irradiation. The procedure:
as §3

Where [3] appears, read: first period of constant oral doses of IPA.
Setting [4] is: resumed for one week with one-half the recommended dosage.
The mark [5] stands for this setting: within 7 days of drug therapy initiation.
Setting [6] is: within a month of resuming therapy at recommended dose levels.

As for `CC(C)=CCNc1ncnc2c1ncn2[C@@H]1O[C@H](CO)[C@@H](O)[C@H]1O` [IPA, N6-(Δ2-isopentenyl) adenosine], in the series on immune comprised patient (setting [3]), the Fever and diarrhea entry is reported as “completely subsided”. Also, in the series with immune comprised patient (setting [3]), the Weight gain came out at 15 pound. The “Life after initiation of therapy” value with immune comprised patient (patient terminally moribund at start) is on record as 5 months. Besides, the T lymphocyte competence result in the series on T lymphocyte [1] (dosage greatly (>3×) increased) is on record as “depression suggesting immunotoxicity”; with T lymphocyte [1] (setting [4]) it was “spiked dramatically to above the lower limit of the normal range”; with T lymphocyte [1] (setting [6]), “well within the range of normal donor reactivity”; in the series on T lymphocyte [1] (within two weeks of resuming therapy at recommended dose levels), “nearly within the normal range”. The “Time to major rapid recovery of T lymphocyte competence after initiation of therapy” value with T lymphocyte [1] (subject 1, oral IPA) was “less than 7 days”. Also, in the series with T lymphocyte [1] (setting [5]), the “Level of T lymphocyte competence” value was “above the lower limits-of the normal donor's reactivity”. The B lymphocyte activity entry with B lymphocyte (setting [4]) was “slight rise”. In addition, the “Time to major rapid recovery of B lymphocyte competence after initiation of therapy” value in the series with B lymphocyte (subject 1, oral IPA) was “less than 7 days”. The “Level of B lymphocyte competence” value in the series on B lymphocyte (setting [5]) is reported as “above the lower limits-of the normal donor's reactivity”. In addition, the B lymphocyte competence entry with B lymphocyte (setting [6]) is “somewhat below lower normal limits”.

As to `c1ccc([C@H]2CN3CCSC3=N2)cc1` [Levamisole], in the series on T lymphocyte [2], the “Immune recovery capacity compared with IPA” value is “slower and less dramatic”.

For `Cc1c(-c2cnccn2)ssc1=S` [oltipraz], the Bone marrow viability with bone marrow cells (group II (oltipraz pre treated)) is 5.82 ×10^6 cells/femur; with bone marrow cells (group III (oltipraz continuously administered)), 14.32 ×10^6 cells/femur. Also, the Lipid peroxidation in the series on lipid peroxidation was 2.12±0.21 nano-moles of MDA formed/mg of protein. Also, the “Body weight on day 6” value in the series with irradiated animals (group II: oltipraz 50 mgs/Kg ten days prior to irradiation) is 21.02±4.14; in the series with irradiated animals (group III: oltipraz 50 mgs/Kg ten days prior to and fifteen days after irradiation) it was 21.10±2.51. Moreover, the “WBC at later days after irradiation” value in the series on irradiated animals (group III (oltipraz continuously administered) compared with group I (radiation alone) and group II) was “significantly elevated WBC”. In addition, in the series with irradiated animals (irradiated mice, oltipraz groups), the Differential count entry was “did not show any significant variation”. Moreover, the Total leukocyte count entry in the series on irradiated animals (oltipraz 50 mgs/Kg, irradiated mice, versus radiation alone) was “increase the count”. The Hemoglobin level in the series on irradiated animals (oltipraz continuously administered group, day 6) is 12.42±2.76. In the series on GSH, the “Levels of GSH compared with radiation alone treated group” value is recorded as “increased almost three times”. In addition, the GPX activity in the series on GPX was 1927.87±136.06 U/L of haemolysate. Besides, the GST activity with GST is 2.38±0.25 nano-moles of CDNB-GSH conjugate formed. Further, in the series with CAT, the CAT activity result was “enhanced”. Besides, the SOD activity result in the series with SOD is on record as “enhanced”.
